Assay results as given in paper PMC11992618, “Development of cyclopeptide inhibitors specifically disrupting FXR–coactivator interaction in the intestine as a novel therapeutic strategy for MASH” (Life Metabolism, 2025).

Columns and labels:
[1] = test system: intestinal and hepatic FXR signaling; assay: In vivo intestinal FXR antagonism experiment (TCA-induced); set-up: species or system mouse; conditions: mice, oral 20 mg/kg with TCA 400 mg/kg/day, 3 doses
Experimental: For the in vivo intestinal FXR antagonism experiment, after a 3-day treatment with an antibiotic cocktail (1 mg/mL neomycin, 1 mg/mL streptomycin, and 1 mg/mL bacitracin) in drinking water, 8- to 10-week-old male C57BL/6 J mice were orally administered with vehicle or TCA (400 mg/kg/day), TCA combined with GUDCA (50 mg/kg), or TCA combined with DC646 (20 mg/kg) once a day. The serum, liver, and intestine were collected 2 h after the third dosing.
(§1) The intestine and liver were frozen in liquid nitrogen and stored at −80°C. RNA was extracted, and complementary DNA was synthesized from 1 μg total RNA. RT-qPCR was performed on a Bio-Rad CFX384 Touch detection system (Bio-Rad). The primer sequences for RT-qPCR are shown in Supplementary Table S5. RNA levels were analyzed by 2-^ΔΔCt, normalized to 18S ribosomal RNA and expressed as fold change relative to the control group.

[2] = Tissue distribution (pharmacokinetic study); format: in vivo, mouse; conditions: ICR mice, single oral 20 mg/kg
Experimental: Male ICR mice (6–8 weeks old, 18–22 g, Shanghai Lingchang BioTech Co., Ltd., China) were used in the pharmacokinetic study. The mice were administered with a single dose of cyclopeptide DC646 in 5% DMSO and 95% hydroxypropyl methylcellulose solution (0.5% hydroxypropyl methylcellulose in deionized water in weight ratio) (volume ratio) by oral gavage (20 mg/kg). Before the test, the mice were fasted for 12 h and were fed regularly 2 h after administration. Subsequently, 50 μL of blood was collected from the portal vein at 1, 4, 8, and 24 h in an EDTA-K2 nebulization tube. Samples were centrifuged at 12,000 rpm for 2 min to separate the plasma, which was then stored at −20°C to determine the drug concentration in the blood. After sacrifice, the livers and intestines were collected, washed with ice-cold saline, and stored at −20°C before compound measurement.

[3] = molecular target: T1, PPARα (Homo sapiens, UniProt Q07869); assay: PPARα cell-based reporter assay; conditions: 10 μmol/L; inhibition of agonist-induced receptor activation
T1 sequence (Q07869 1-468): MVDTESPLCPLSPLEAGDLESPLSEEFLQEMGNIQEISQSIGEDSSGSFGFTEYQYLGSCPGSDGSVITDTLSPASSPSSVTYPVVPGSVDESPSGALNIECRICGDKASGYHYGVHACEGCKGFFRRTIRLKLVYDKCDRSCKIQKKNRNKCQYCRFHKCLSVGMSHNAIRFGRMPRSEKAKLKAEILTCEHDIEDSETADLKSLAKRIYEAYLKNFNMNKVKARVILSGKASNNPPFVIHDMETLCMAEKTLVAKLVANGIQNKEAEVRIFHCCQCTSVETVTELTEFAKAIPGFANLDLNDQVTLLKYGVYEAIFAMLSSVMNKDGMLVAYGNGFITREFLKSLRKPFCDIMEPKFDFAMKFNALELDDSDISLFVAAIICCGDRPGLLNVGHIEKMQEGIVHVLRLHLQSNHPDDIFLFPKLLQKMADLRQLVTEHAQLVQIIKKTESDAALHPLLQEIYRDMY
Text: Inhibition% means inhibition percentage of agonist-induced receptor activation.

[4] = test system: MCD diet-induced MASH; assay: MCD diet-induced MASH mice, long-term model; format: in vivo, mouse; conditions: oral, 4 weeks
Experimental: (§2) For the long-term MASH model, 8- to 10-week-old male C57BL/6 J mice were fed with an MCS diet or MCD diet for 2 weeks, before the MCD models were administered with vehicle or GUDCA (50 mg/kg), OCA (30 mg/kg), and DC646 (10 mg/kg) for 4 weeks. The serum, liver, and intestine were collected 2 h after the final dosing. Male Fxr^△IE mice (8–10 weeks old) were fed with a GAN diet for 20 weeks and administered with vehicle or DC646 (10 mg/kg) from the 12th week for 8 weeks. The serum, liver, and intestine were collected 2 h after the final dosing.
as §1
(§3) Hepatic TG and TC, and plasma ALT and AST levels were measured using commercial kits from Nanjing Jiancheng Bioengineering Institute according to the manufacturer’s instructions. To measure hepatic TG contents, liver tissues (~10 mg) were homogenized in 100 μL 1% TritonX-100 and centrifuged at 3000 rpm for 10 min. Supernatants were collected, and 2 μL samples were incubated with 200 μL reaction buffer at 37°C for 10 min. Hepatic TG or TC levels were read at 510 or 500 nm using a microplate reader (Versamax, Molecular Devices) and normalized using the protein concentration. To measure plasma ALT and AST levels, reaction buffer 1 and reaction buffer 2 were mixed at a ratio of 1:1, before adding 2 μL plasma sample and 200 μL mixed reaction buffer in a 96-well plate. The data were acquired using the kinetic mode with an interval of 30 s and 31 total reads at 340 nm using a microplate reader (Versamax, Molecular Devices).
Tissue specimens were fixed in 10% formalin for 12–24 h before being dehydrated and paraffin-embedded. The sections were stained with H&E. The NAS was calculated as a summary score including individual components of steatosis (0–3), lobular inflammation (0–3), and hepatocyte ballooning (0–2) for each liver section by a blinded liver pathologist, and the results were reviewed by a blinded hepatologist according to a previous protocol. To visualize liver fibrosis, paraffin-embedded tissue samples were stained with Sirius Red to characterize the collagen deposition. To visualize lipid accumulation and inflammation in the liver, frozen liver sections were stained with Oil Red O and F4/80, and images were acquired using a Leica DM6B laser microdissection system. At least three discontinuous liver sections were evaluated for each mouse.

[5] = test system: GAN diet-induced MASH in Fxr^△IE mice; assay: GAN diet-fed Fxr^△IE mice; format: in vivo, mouse; conditions: GAN diet 20 weeks, oral 10 mg/kg daily for 8 weeks
Experimental: as §2
as §3, with “Supernatants were collected, and 2 μL samples were incubated with 200 μL reaction buffer at 37°C for 10 min.” left out, “To measure plasma ALT and AST levels, reaction buffer 1 and reaction buffer 2 were mixed at a ratio of 1:1, before adding 2 μL plasma sample and 200 μL mixed reaction buffer in a 96-well plate.” left out
Tissue specimens were fixed in 10% formalin for 12–24 h before being dehydrated and paraffin-embedded. […] At least three discontinuous liver sections were evaluated for each mouse.

[6] = Water solubility (co-crystallisation attempts); format: physicochemical
Experimental: To explore the molecular mechanism underlying DC646-mediated FXR antagonism, we determined the structure of the DC646 by X-ray crystal analysis (Supplementary Fig. S5). We also made efforts to co-crystalize DC646 with hFXRα-LBD. […] As an alternative, the AlphaScreen assay was conducted to investigate the mechanism (Fig. 3a).

[7] = DC646 10 mg/kg, GUDCA 50 mg/kg, OCA 30 mg/kg

For `CC(C)C[C@@H]1NC(=O)[C@@H]2CN(CCO2)c2cccc3c2c(cn3[Si](C(C)C)(C(C)C)C(C)C)C[C@H](NS(=O)(=O)C(F)(F)F)C(=O)OCCCCNC(=O)[C@H](CC(C)C)NC(=O)[C@@H]2CN(CCO2)c2cccc3c2c(cn3[Si](C(C)C)(C(C)C)C(C)C)C[C@H](NS(=O)(=O)C(F)(F)F)C(=O)OCCCCNC1=O` [DC646, N,N'-((1^2R,1^4S,16^2R,16^4S,4R,13R,19R,28R)-13,28-diisobutyl-5,12,15,20,27,30-hexaoxo-2^1,17^1-bis(triisopropylsilyl)-2^1H,17^1H-6,21-dioxa-11,14,26,29-tetraaza-1(4,2),16(2,4)-dimorpholina-2,17(4,3)-diindolacyclotriacontaphane-4,19-diyl)bis(1,1,1-trifluoromethanesulfonamide)], the “Hepatic FXR signaling” value [1] was “not hepatic FXR signaling”, the “mRNA expression levels of TCA-induced FXR target genes Shp and Fgf15 (intestine)” value [1] was “decreased” and the Concentration in liver ([2]; 1 h) was “BQL^$”. For the same compound, the Concentration in serum ([2]; 1 h) was “BQL^&”, the Concentration in liver ([2]; 4 h) was “BQL” and the Concentration in serum ([2]; 4 h) was “BQL”. For the same compound, the Concentration in liver ([2]; 8 h) was “BQL”, the Concentration in serum ([2]; 8 h) was “BQL” and the Concentration in intestine ([2]; 24 h) was “BQL^$”. The Concentration in liver ([2]; 24 h) was “BQL”, the Concentration in serum ([2]; 24 h) was “BQL” and the tissue level at time at 1 h ([2]; male, mouse, intestine, 1 h, read-out: Concentration in intestine) was 6350 ng/g. The tissue level at time at 4 h ([2]; male, mouse, intestine, 4 h, read-out: Concentration in intestine) was 435 ng/g, the tissue level at time at 8 h ([2]; male, mouse, intestine, 8 h, read-out: Concentration in intestine) was 72 ng/g and the inhibition at 10 µM [3] was -1.3%. For the same compound, the “F4/80 staining, macrophage infiltration in the liver” value ([4]; DC646 10 mg/kg) was “good efficacy in reducing macrophage infiltration”, the “Hepatic FXR signaling in MASH mice” value ([4]; DC646 10 mg/kg) was “without affecting” and the “Hepatic triglyceride (TG) levels” value ([4]; DC646 10 mg/kg) was “markedly reduced”. The “Intestinal FXR signaling in MASH mice” value ([4]; DC646 10 mg/kg) was “selectively inhibited”, the “NAFLD activity scoring (NAS)” value ([4]; DC646 10 mg/kg) was “alleviating MASH pathologies” and the “Hepatic mRNA levels of inflammation-related genes” value ([4]; DC646 10 mg/kg, GUDCA 50 mg/kg) was “notable reduction”. The “Hepatic mRNA levels of lipid metabolism-related genes / hepatic lipid accumulation” value [4, 7] was “reduce the mRNA levels”, the “Serum alanine aminotransferase (ALT) level” value [4, 7] was “significantly lowered” and the “H&E and Oil Red O staining, lipid droplets” value ([4]; versus vehicle-, GUDCA- and OCA-treated groups) was “fewer lipid droplets”. The “Liver/body weight ratio, serum ALT, serum AST, liver TG, liver TC and NAS score” value [5] was “did not reduce”, the “mRNA levels of genes in the intestinal FXR signaling” value [5] was “no difference” and the Water solubility [6] was “poor water solubility”.
